Assay: solubility of organic semiconductor in solvent (Table 1, formulation and processing)
Assay type: physicochemical
Conditions: for solubility in THF: solvent THF

Row | SMILES | solubility in THF | solubility (in words, compared with 6PTTP6) (solvent not stated)
1 | CCC(CC)COc1ccc(-c2ccc(-c3ccc(-c4ccc(OCC(CC)CC)cc4)s3)s2)cc1 [4(2Et)-O-PTTP-O- 4(2Et), 5,5′-bis(4-(2-ethylbutyloxy)phenyl)-2,2′-bithiophene] | solubility in THF about 4,900 ppm | 
2 | CC(C)CCCC(C)CCOc1ccc(-c2ccc(-c3ccc(-c4ccc(OCCC(C)CCCC(C)C)cc4)s3)s2)cc1 (stereo not drawn) [8(3,7Me)-O-PTTP-O- 8(3,7Me), 5,5′-bis(4-(3,7-dimethyloctyloxy)phenyl)-2,2′-bithiophene] | solubility in THF about 12,000 ppm DCS: mp = 192° C., | 
3 | CCCCCC(CC)Oc1ccc(-c2ccc(-c3ccc(-c4ccc(OC(CC)CCCCC)cc4)s3)s2)cc1 (stereo not drawn) [6(1Et)-O-PTTP-O- 6(1Et), 5,5═-Bis-[4-(1-ethyl-hexyloxy)-phenyl]-[2,2′]bithiophenyl] | Well soluble in THF (about 330,000 ppm) DSC: mp = 97-102° C., (broad transition) | 
4 | CCCCCCOc1ccc(-c2ccc(-c3ccc(-c4ccc(OCCCCCC)cc4)s3)s2)cc1 [6-O-PTTP-O-6, 5,5′-bis(4-hexyloxyphenyl)-2,2′-bithiophene] | solubility in THF about 600 ppm, lowest value by far. Differential scanning calorimetry | 
5 | CC(C)CCCOc1ccc(-c2ccc(-c3ccc(-c4ccc(OCCCC(C)C)cc4)s3)s2)cc1 [5(4Me)-O-PTTP-O-5(4Me), 5,5′-bis(4-(4-methylpentyloxy)phenyl)-2,2′-bithiophene] | solubility in THF about 5400 ppm. DSC: mp =250° C., smaller | 
6 | C=CC(C=C)OC(=O)CCCCCOc1ccc(-c2ccc(-c3ccc(-c4ccc(OCCCCCC(=O)OC(C=C)C=C)cc4)s3)s2)cc1 [6-[4-(5′-[5-(1-Vinyl-allyloxycarbonyl)-pentyloxy]-phenyl}-[2,2′]bithiophenyl-5-yl)-phenoxy]-hexanoic acid 1-vinyl-allyl ester] | well soluble in THF (131,000 ppm) | 
7 | CCCCCC(C)Oc1ccc(-c2ccc(-c3ccc(-c4ccc(OC(C)CCCCC)cc4)s3)s2)cc1 (stereo not drawn) [6(1Me)-O-PTTP-O- 6(1Me), 5,5′bis(4-(1-methylhexyloxy)phenyl)-2,2′-bithiophene] | ~89,000 ppm | 
8 | CCCOCCc1ccc(-c2ccc(-c3ccc(-c4ccc(CCOCCC)cc4)s3)s2)cc1 [3O2PTTP2O3, 5,5═-Bis(4-(propxyethyl)phenyl)-2,2′-bithiophene] |  | Solubility like 6PTTP6
9 | CC(COc1ccc(-c2ccc(-c3ccc(-c4ccc(OCC(C)COC5CCCCO5)cc4)s3)s2)cc1)COC1CCCCO1 (stereo not drawn) [3(3THPO,2Me)-O-PTTP- O-3(THPO,2Me), 5,5′-Bis-[4-(2-methyl-propoxy-tetrahydro-pyran)-phenoxy]-[2,2′]bithiophenyl] | Well soluble in THF (about 75,000 ppm) | 
10 | CCCCC(C)COc1ccc(-c2ccc(-c3ccc(-c4ccc(OCC(C)CCCC)cc4)s3)s2)cc1 (stereo not drawn) [6(2Me)-O-PTTP-O- 6(2Me), 5,5′-bis(4-(2-methylhexyloxy)phenyl)-2,2′-bithiophene] | sufficiently soluble in THF (about 61,000 ppm) DSC: mp = 197 °C | 
11 | CC(CO)COc1ccc(-c2ccc(-c3ccc(-c4ccc(OCC(C)CO)cc4)s3)s2)cc1 (stereo not drawn) [3(3OH,2Me)-O-PTTP- O-3(3OH,2Me), 3-(4-{5′-[4-(3-Hydroxy-2-methyl-propoxy)-phenyl]-[2,2′]bithiophenyl-5-yl}-phenoxy)-2-methyl-propan-1-ol] | Low solubility in THF (600 ppm) | 
12 | CC(C)(C)[Si](OCCCCCCOc1ccc(-c2ccc(-c3ccc(-c4ccc(OCCCCCCO[Si](c5ccccc5)(c5ccccc5)C(C)(C)C)cc4)s3)s2)cc1)(c1ccccc1)c1ccccc1 [6(6TBDPSO)-O- PTTP-O- 6(6TBDPSO), 5,5′-Bis-{4-[6-(tert-butyl-diphenyl-silanyloxy)-hexyloxy]-phenyl}-[2,2′]bithiophenyl] | # THF (about 310,000 ppm) | 

— US20070075630A1, “Organic compositions” (priority 2005, published 2007)
